Source: patent publication US8791099B2, “Transition metal complexes of corroles for preventing cardiovascular diseases or disorders” (Technion Research and Development Foundation Ltd., priority 2007, dated 2014)

Legend:
[1] = Decomposition of peroxynitrite, comparison with punicalagin; details: for Minimal concentration required for reducing the half lifetime of peroxynitrite by 50%: calculated from rate constants
Protocol: For initial assessment of possible superiority of the metallocorroles relative to natural antioxidants, we have determined the effect of excess (45-135 μM) punicalagin—the active polyphenolic hydrolysable tannin ingredient of pomegranate juice (Tzulker et al., 2007), on decomposition of peroxynitrite (40 μM).

[2] = system: LDL; experiment: Interaction of LDL with corroles (absorbance before/after dialysis); format: binding, human; details: 10 μM corrole, 100 mg LDL protein/L (0.2 μM), dialyzed against PBS
Protocol: The solutions where extensively dialyzed against PBS, and the electronic spectrum was measured again. The difference in the absorbance can be used to calculate the number of corrole molecules bound to LDL [HDL].
Possible interactions between the corroles and LDL were investigated prior to the examinations of the effect of the corroles on LDL oxidation. This was performed by recording the absorbance spectrum of 10 μM aqueous corrole solutions before and after addition of 100 mg of LDL protein/L (corresponding to a molar concentration of 0.2 μM). […] This large number is quite reasonable since the LDL particle is very large and may not encompass specific binding sites, but rather the amphiphilic nature of the examined corroles renders them ideal for positioning in the phospholipid monolayer of the LDL, with the hydrophilic head groups sticking out toward the aqueous phase, as previously proposed for amphiphilic porphyrins (Camejo et al., 1998; Bonneau et al., 2004). In any case, no corrole is expected to be free in solution at the maximal corrole concentration used in the forthcoming experiments, namely, 5 μM per 100 mg of LDL protein/L (about 25 corrole molecules per LDL particle).

[3] = system: Apolipoprotein E deficient mice (E^0 mice); experiment: Histopathology of aortic atherosclerosis lesions in E^0 mice; format: in vivo; details: oral, drinking water 0.04 mM (0.2 mg per mouse per day), 10 weeks; for Decrease in average lesion area relative to the control group: 1-Fe: mean of the four mice with lesions
Text: At the end of the experiment, the mice were sacrificed and each heart and entire aorta were rapidly dissected out from each mouse and immersion-fixed in 3% glutaraldehyde in 0.1 mol/L sodium cacodylate buffer with 0.01% calcium chloride, pH 7.4, at room temperature. The first 4 mm of the aortic arch was stained with osmium tetroxide, which colors all the lipid components a dark brown-black color thus enabling delineation of the lesion with greater accuracy. The blocks were embedded in epon resin and thin transverse sections were cut to allow greater resolution of the lesion details. The area covered by the lesion was determined by image analysis (Coleman et al., 2006).
Two of the mice receiving that treatment did actually not develop atherosclerotic lesions at all and the average lesion area for the other four mice was 60% smaller than that obtained for the control mice. These observations are much better than those obtained by other methods, including E^0 mice that were treated by natural anti-oxidants (48% reduction when consuming red wine (Hayek et al., 1997; Fuhrman et al., 1995) and 44% for pomegranate juice (Aviram et al., 2000)) or those that were intraperitoneally-treated with different synthetic catalysts for decomposition of reactive oxygen species.

[4] = system: mouse peritoneal macrophages (MPM); experiment: Cholesterol efflux from MPM of treated E^0 mice; details: drinking water 0.04 mM (8 mg/Kg/day), 14 weeks
Protocol: Mouse peritoneal macrophages were incubated with [^3H]-labeled cholesterol for 1 h at 37° C. followed by cell wash in ice-cold PBS (3×) and further incubation in the absence or presence of 100 μg of human HDL protein/ml for 3 h at 37° C. Cellular and medium [^3H]-labels were quantitated and HDL-mediated cholesterol efflux was calculated as the ratio of [^3H]-label in the medium/[^3H]-label in the medium+[^3H]-label in cells.

[5] = system: mouse peritoneal macrophages (MPM); experiment: Cholesterol synthesis by MPM of treated E^0 mice; details: drinking water 0.04 mM (8 mg/Kg/day), 14 weeks
Protocol: Cellular cholesterol biosynthesis was assayed after incubation of macrophages (3×10^6 well^−1) overnight with DMEM containing 2% BSA followed by additional 3 h of incubation at 37° C. with [^3H]-acetate (3.3 μCi/ml). Cellular lipids were extracted with hexane:isopropanol (3:2, v:v), and the upper phase was dried under nitrogen. The lipids were then separated by TLC using an eluent of hexane:ether:acetic acid (130:30:1.5, v:v:v). Unesterified cholesterol spots were visualized by iodine vapor (by using standard for identification) and counted with β-counter.

[6] = system: J-774 macrophages; experiment: Cholesterol efflux from J-774 macrophages by serum of treated E^0 mice; details: drinking water 0.04 mM (8 mg/Kg/day), 14 weeks
Protocol: J-774 macrophages were incubated with [^3H]-labeled cholesterol for 1.5 h at 37° C. followed by cell wash in ice-cold PBS (3×) and further incubation in the presence of 15 μL mice serum for 3 h at 37° C. Cellular and medium [^3H]-labels were quantitated and HDL-mediated cholesterol efflux was calculated as the ratio of [^3H]-label in the medium/[^3H]-label in the medium+[^3H]-label in cells.

O=S(=O)(O)c1cc2[n]3c1C(c1c(F)c(F)c(F)c(F)c1F)=C1C=CC4=[N+]1[Fe-]31[n]3c(cc(S(=O)(=O)O)c3-2)C(c2c(F)c(F)c(F)c(F)c2F)=c2ccc([n]21)=C4c1c(F)c(F)c(F)c(F)c1F (stereo not drawn) [1-Fe, 5,10,15-tris(pentafluorophenyl)-2,17-bis(sulfonic acid)-corrolato iron(III)]
Times more effective than punicalagin in peroxynitrite decomposition [1]: 5000 times
Minimal concentration required for reducing the half lifetime of peroxynitrite by 50% [1]: 0.05 mol %
Decrease of absorbance after dialysis [2]: 10%
Mice (of six) that did not develop atherosclerotic lesions at all [3]: Two and two
Decrease in average lesion area relative to the control group [3]: 60%
Decrease in cholesterol efflux from the E^0 MPM [4]: 20%
Reduction of cholesterol synthesis by MPMs [5]: 76%
Increase in serum-mediated cholesterol efflux from J-774 macrophages [6]: 7%

O=S(=O)(O)c1cc2[n]3c1C(c1c(F)c(F)c(F)c(F)c1F)=C1C=CC4=[N+]1[Mn-]31[n]3c(cc(S(=O)(=O)O)c3-2)C(c2c(F)c(F)c(F)c(F)c2F)=c2ccc([n]21)=C4c1c(F)c(F)c(F)c(F)c1F (stereo not drawn) [1-Mn, 5,10,15-tris(pentafluorophenyl)-2,17-bis(sulfonic acid)-corrolato manganese(III)]
Times more effective than punicalagin in peroxynitrite decomposition [1]: 100 times
Minimal concentration required for reducing the half lifetime of peroxynitrite by 50% [1]: 2.5 mol %
Decrease of absorbance after dialysis [2]: 20%
Decrease in average lesion area relative to the control group [3]: 17%
